Experimental data as given in patent publication US10738056B2 (Aduro BioTech, Inc., priority 2017, dated 2020).

The molecules below were run against Human cGAS amino acids 155-522 (Homo sapiens (Human), UniProt Q8N884) (assay: cGAS biochemical activity assay (ATP remaining, Kinase-Glo Max luminescence)). Conditions: human cGAS 155-522, ATP remaining (Kinase-Glo Max); read-out: cGAS IC50.
Human cGAS amino acids 155-522, sequence (Q8N884 157-522): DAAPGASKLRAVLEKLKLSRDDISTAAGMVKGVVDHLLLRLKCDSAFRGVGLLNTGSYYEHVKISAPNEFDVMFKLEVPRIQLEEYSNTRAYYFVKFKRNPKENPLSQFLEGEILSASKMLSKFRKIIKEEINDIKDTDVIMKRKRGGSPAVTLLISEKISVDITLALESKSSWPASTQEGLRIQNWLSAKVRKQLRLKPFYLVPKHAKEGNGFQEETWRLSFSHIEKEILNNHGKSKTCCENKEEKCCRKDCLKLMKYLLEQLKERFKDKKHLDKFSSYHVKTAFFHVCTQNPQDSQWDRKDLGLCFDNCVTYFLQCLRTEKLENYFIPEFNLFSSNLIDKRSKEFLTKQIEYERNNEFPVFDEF

SMILES	IC50
COc1ccc(NC(=O)c2c(C)[nH]c3c(-c4ccccc4)c(C(F)(F)F)nn3c2=O)cc1 [Compound A1001, N-(4-methoxyphenyl)-5-methyl-7-oxo-3-phenyl-2-(trifluoromethyl)-4,7-dihydropyrazolo[1,5-a]pyrimidine-6-carboxamide]	20 to 250 µM
Cc1[nH]c2c(-c3ccccc3)c(C(F)(F)F)nn2c(=O)c1C(=O)N1CCN(c2ccccc2)CC1 [Compound A1003, 5-methyl-3-phenyl-6-(4-phenylpiperazine-1-carbonyl)-2-(trifluoromethyl)pyrazolo[1,5-a]pyrimidin-7(4H)-one]	> 250 µM
Cc1[nH]c2c(-c3ccccc3)c(C(F)(F)F)nn2c(=O)c1C(=O)N1CCOCC1 [Compound A1004, 5-methyl-6-(morpholine-4-carbonyl)-3-phenyl-2-(trifluoromethyl)pyrazolo[1,5-a]pyrimidin-7(4H)-one]	> 250 µM
Cc1[nH]c2c(-c3ccccc3)c(C(F)(F)F)nn2c(=O)c1C(=O)Nc1cccnc1 [Compound A1005, 5-methyl-7-oxo-3-phenyl-N-(pyridin-3-yl)-2-(trifluoromethyl)-4,7-dihydropyrazolo[1,5-a]pyrimidine-6-carboxamide]	20 to 250 µM
Cc1[nH]c2c(-c3ccccc3)c(C(F)(F)F)nn2c(=O)c1C(=O)Nc1ccc(C(F)(F)F)cc1 [Compound A1007, 5-methyl-7-oxo-3-phenyl-2-(trifluoromethyl)-N-(4-(trifluoromethyl)phenyl)-4,7-dihydropyrazolo[1,5-a]pyrimidine-6-carboxamide]	20 to 250 µM
Cc1[nH]c2c(-c3ccccc3)c(C(F)(F)F)nn2c(=O)c1C(=O)NC1CCCC1 [Compound A1008, N-cyclopentyl-5-methyl-7-oxo-3-phenyl-2-(trifluoromethyl)-4,7-dihydropyrazolo[1,5-a]pyrimidine-6-carboxamide]	20 to 250 µM
Cc1[nH]c2c(-c3ccccc3)c(C(F)(F)F)nn2c(=O)c1C(=O)N1CCCC1 [Compound A1009, 5-methyl-3-phenyl-6-(pyrrolidine-1-carbonyl)-2-(trifluoromethyl)pyrazolo[1,5-a]pyrimidin-7(4H)-one]	> 250 µM
Cc1[nH]c2c(-c3ccccc3)c(C(F)(F)F)nn2c(=O)c1C(=O)NC1CCCCC1 [Compound A1010, N-cyclohexyl-5-methyl-7-oxo-3-phenyl-2-(trifluoromethyl)-4,7-dihydropyrazolo[1,5-a]pyrimidine-6-carboxamide]	20 to 250 µM
Cc1[nH]c2c(-c3ccccc3)c(C(F)(F)F)nn2c(=O)c1C(=O)N1CCCCC1 [Compound A1011, 5-methyl-3-phenyl-6-(piperidine-1-carbonyl)-2-(trifluoromethyl)pyrazolo[1,5-a]pyrimidin-7(4H)-one]	> 250 µM
Cc1ccc(NC(=O)c2c(C)[nH]c3c(-c4ccccc4)c(C(F)(F)F)nn3c2=O)cc1 [Compound A1012, 5-methyl-7-oxo-3-phenyl-N-(p-tolyl)-2-(trifluoromethyl)-4,7-dihydropyrazolo[1,5-a]pyrimidine-6-carboxamide]	20 to 250 µM
CN(Cc1ccccc1)C(=O)c1c[nH]c2c(-c3ccccc3)c(C(F)(F)F)nn2c1=O [Compound A1013, N-benzyl-N-methyl-7-oxo-3-phenyl-2-(trifluoromethyl)-4,7-dihydropyrazolo[1,5-a]pyrimidine-6-carboxamide]	> 250 µM
Cc1[nH]c2c(-c3ccccc3)c(C(F)(F)F)nn2c(=O)c1C(=O)N[C@@H]1CCCC[C@H]1N [Compound A1014, N-((1R,2R)-2-aminocyclohexyl)-5-methyl-7-oxo-3-phenyl-2-(trifluoromethyl)-4,7-dihydropyrazolo[1,5-a]pyrimidine-6-carboxamide]	20 to 250 µM
Cc1[nH]c2c(-c3ccccc3)c(C(F)(F)F)nn2c(=O)c1C(=O)Nc1ccc(C#N)cc1 [Compound A1015, N-(4-cyanophenyl)-5-methyl-7-oxo-3-phenyl-2-(trifluoromethyl)-4,7-dihydropyrazolo[1,5-a]pyrimidine-6-carboxamide]	20 to 250 µM
Cc1[nH]c2c(-c3ccccc3)c(C(F)(F)F)nn2c(=O)c1C(=O)Nc1ccc(Cl)cc1 [Compound A1016, N-(4-chlorophenyl)-5-methyl-7-oxo-3-phenyl-2-(trifluoromethyl)-4,7-dihydropyrazolo[1,5-a]pyrimidine-6-carboxamide]	20 to 250 µM

Results, then the molecule that gave them:

IC50	SMILES
20 to 250 µM	COC1CCCCC1NC(=O)c1c(C)[nH]c2c(-c3ccccc3)c(C(F)(F)F)nn2c1=O (single isomer, unassigned) [Compound A1085, N-(2-methoxycyclohexyl)-5-methyl-7-oxo-3-phenyl-2-(trifluoromethyl)-4,7-dihydropyrazolo[1,5-a]pyrimidine-6-carboxamide]
20 to 250 µM	COc1cccc2oc(-c3c(C4CCC(C(=O)O)CC4)[nH]c4c(-c5ccccc5)c(C(F)(F)F)nn4c3=O)nc12 (single isomer, unassigned) [Compound C1237, 4-(6-(4-methoxybenzo[d]oxazol-2-yl)-7-oxo-3-phenyl-2-(trifluoromethyl)-4,7-dihydropyrazolo[1,5-a]pyrimidin-5-yl)cyclohexane-1-carboxylic acid]
20 to 250 µM	COc1cccc2oc(-c3c(C4CCC(C(=O)O)CC4)[nH]c4c(-c5ccccc5)c(C(F)(F)F)nn4c3=O)nc12 (single isomer, unassigned) [Compound C1238, 4-(6-(4-methoxybenzo[d]oxazol-2-yl)-7-oxo-3-phenyl-2-(trifluoromethyl)-4,7-dihydropyrazolo[1,5-a]pyrimidin-5-yl)cyclohexane-1-carboxylic acid]
< 20 µM	Cc1[nH]c2c(-c3ccccc3)c(C(F)(F)F)nn2c(=O)c1C(=O)Nc1ccccn1 [Compound A1017, 5-methyl-7-oxo-3-phenyl-N-(pyridin-2-yl)-2-(trifluoromethyl)-4,7-dihydropyrazolo[1,5-a]pyrimidine-6-carboxamide]
20 to 250 µM	Cc1[nH]c2c(-c3ccccc3)c(C(F)(F)F)nn2c(=O)c1C(=O)Nc1ccnnc1 [Compound A1018, 5-methyl-7-oxo-3-phenyl-N-(pyridazin-4-yl)-2-(trifluoromethyl)-4,7-dihydropyrazolo[1,5-a]pyrimidine-6-carboxamide]
> 250 µM	Cc1noc(C)c1NC(=O)c1c(C)[nH]c2c(-c3ccccc3)c(C(F)(F)F)nn2c1=O [Compound A1019, N-(3,5-dimethylisoxazol-4-yl)-5-methyl-7-oxo-3-phenyl-2-(trifluoromethyl)-4,7-dihydropyrazolo[1,5-a]pyrimidine-6-carboxamide]
20 to 250 µM	Cc1[nH]c2c(-c3ccccc3)c(C(F)(F)F)nn2c(=O)c1C(=O)Nc1ccon1 [Compound A1020, N-(isoxazol-3-yl)-5-methyl-7-oxo-3-phenyl-2-(trifluoromethyl)-4,7-dihydropyrazolo[1,5-a]pyrimidine-6-carboxamide]
20 to 250 µM	CC(=O)Nc1ccccc1NC(=O)c1c(C)[nH]c2c(-c3ccccc3)c(C(F)(F)F)nn2c1=O [Compound A1021, N-(2-acetamidophenyl)-5-methyl-7-oxo-3-phenyl-2-(trifluoromethyl)-4,7-dihydropyrazolo[1,5-a]pyrimidine-6-carboxamide]
< 20 µM	Cc1[nH]c2c(-c3ccccc3)c(C(F)(F)F)nn2c(=O)c1C(=O)Nc1ccccc1NS(C)(=O)=O [Compound A1022, 5-methyl-N-(2-(methylsulfonamido)phenyl)-7-oxo-3-phenyl-2-(trifluoromethyl)-4,7-dihydropyrazolo[1,5-a]pyrimidine-6-carboxamide]
< 20 µM	Cc1[nH]c2c(-c3ccccc3)c(C(F)(F)F)nn2c(=O)c1C(=O)Nc1cnccn1 [Compound A1024, 5-methyl-7-oxo-3-phenyl-N-(pyrazin-2-yl)-2-(trifluoromethyl)-4,7-dihydropyrazolo[1,5-a]pyrimidine-6-carboxamide]
20 to 250 µM	Cc1[nH]c2c(-c3ccccc3)c(C(F)(F)F)nn2c(=O)c1C(=O)NC1CCOCC1 [Compound A1025, 5-methyl-7-oxo-3-phenyl-N-(tetrahydro-2H-pyran-4-yl)-2-(trifluoromethyl)-4,7-dihydropyrazolo[1,5-a]pyrimidine-6-carboxamide]
20 to 250 µM	Cc1[nH]c2c(-c3ccccc3)c(C(F)(F)F)nn2c(=O)c1C(=O)NC1CCN(C)CC1 [Compound A1026, 5-methyl-N-(1-methylpiperidin-4-yl)-7-oxo-3-phenyl-2-(trifluoromethyl)-4,7-dihydropyrazolo[1,5-a]pyrimidine-6-carboxamide]
20 to 250 µM	CC(=O)N1CCC(NC(=O)c2c(C)[nH]c3c(-c4ccccc4)c(C(F)(F)F)nn3c2=O)CC1 [Compound A1027, N-(1-acetylpiperidin-4-yl)-5-methyl-7-oxo-3-phenyl-2-(trifluoromethyl)-4,7-dihydropyrazolo[1,5-a]pyrimidine-6-carboxamide]
< 20 µM	Cc1[nH]c2c(-c3ccccc3)c(C(F)(F)F)nn2c(=O)c1C(=O)Nc1cccc(Cl)c1 [Compound A1030, N-(3-chlorophenyl)-5-methyl-7-oxo-3-phenyl-2-(trifluoromethyl)-4,7-dihydropyrazolo[1,5-a]pyrimidine-6-carboxamide]
> 250 µM	Cc1[nH]c2c(-c3ccccc3)c(C(F)(F)F)nn2c(=O)c1C(=O)N[C@H]1CCN(C(=O)OC(C)(C)C)C1 [Compound A1034, tert-butyl (S)-3-(5-methyl-7-oxo-3-phenyl-2-(trifluoromethyl)-4,7-dihydropyrazolo[1,5-a]pyrimidine-6-carboxamido)pyrrolidine-1-carboxylate]
> 250 µM	Cc1[nH]c2c(-c3ccccc3)c(C(F)(F)F)nn2c(=O)c1C(=O)N[C@H]1CCNC1 [Compound A1035, (S)-5-methyl-7-oxo-3-phenyl-N-(pyrrolidin-3-yl)-2-(trifluoromethyl)-4,7-dihydropyrazolo[1,5-a]pyrimidine-6-carboxamide]
20 to 250 µM	Cc1[nH]c2c(-c3ccccc3)c(C(F)(F)F)nn2c(=O)c1C(=O)Nc1ccccc1C#N [Compound A1036, N-(2-cyanophenyl)-5-methyl-7-oxo-3-phenyl-2-(trifluoromethyl)-4,7-dihydropyrazolo[1,5-a]pyrimidine-6-carboxamide]
